Results published in patent US11746100B2 (GLOBAL BLOOD THERAPEUTICS, INC., priority 2020, dated 2023).

Molecular target: T1, human ferroportin (Homo sapiens, UniProt Q9NP59)
T1 construct: luciferase reporter (read with the Nano-Glo Luciferase Assay System); expressed in transfected cells; host or cells: CHO cells, stably transfected, expression induced with doxycycline
T1 sequence (Q9NP59 1-571): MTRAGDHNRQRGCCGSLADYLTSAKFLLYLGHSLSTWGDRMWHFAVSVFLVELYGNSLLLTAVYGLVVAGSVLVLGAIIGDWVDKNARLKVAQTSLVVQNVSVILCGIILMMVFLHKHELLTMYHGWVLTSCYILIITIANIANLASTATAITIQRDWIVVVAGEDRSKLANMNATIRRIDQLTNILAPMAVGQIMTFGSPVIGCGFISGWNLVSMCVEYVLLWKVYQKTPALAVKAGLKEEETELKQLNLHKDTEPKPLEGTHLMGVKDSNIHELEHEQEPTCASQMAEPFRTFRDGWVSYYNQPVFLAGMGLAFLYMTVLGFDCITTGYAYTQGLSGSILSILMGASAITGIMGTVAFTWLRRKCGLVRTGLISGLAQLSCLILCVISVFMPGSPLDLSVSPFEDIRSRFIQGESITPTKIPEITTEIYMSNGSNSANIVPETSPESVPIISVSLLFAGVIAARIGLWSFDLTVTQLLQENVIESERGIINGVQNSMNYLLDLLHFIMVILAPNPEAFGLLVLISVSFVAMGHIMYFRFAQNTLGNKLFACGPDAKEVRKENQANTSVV
Test: Biological in-vitro ferroportin internalization assay (luciferase reporter)
Assay type: cell-based
Conditions: average pEC50; stably-transfected CHO cell line expressing human ferroportin tagged to a luciferase reporter; 6 h incubation with test compound
Experimental: The protocol for this assay is generally as described in WO2018/128828, incorporated herein by reference in its entirety. Functional internalization of ferroportin protein was measured using a stably-transfected CHO cell line expressing the human ferroportin tagged to a luciferase reporter. Cells were plated for 24 h in the presence of ferric ammonium citrate (FAC). Ferroportin protein expression was induced with doxycycline for 24 h. The next day, the compounds were added. Test compounds were dissolved in DMSO. Cells were incubated with the test compounds for 6 h, and subsequently luciferase activity was measured using the Nano-Glo Luciferase Assay System and Glomax (Promega, Madison, Wis.). The average pEC50 was determined for the test compounds.

| Compound | pEC50 |
| --- | --- |
| CN(CC(=O)NC1CCCC1)c1nc(-c2cn(C)cn2)nc2c1CCC2 [Compound 150, N-cyclopentyl-2-{methyl[2-(1-methyl-1H-imidazol-4-yl)-5H,6H,7H-cyclopenta[d]pyrimidin-4-yl]amino}acetamide] | 7.3 |
| CCC(O)(CC)COc1ccnc(-c2nc3c(c(N(C)CC(=O)NC(C)(C)C)n2)CCC3)c1 [Compound 395, N-tert-butyl-2-({2-[4-(2-ethyl-2-hydroxybutoxy)pyridin-2-yl]-5H,6H,7H-cyclopenta[d]pyrimidin-4-yl}(methyl)amino)acetamide] | 8.4 |
| COc1ncc(NC(=O)CN(C)c2nc(-c3cc(OC(C)(C)CO)ccn3)nc3c2CCC3)cn1 [Compound 276, 2-[(2-{4-[(1-hydroxy-2-methylpropan-2-yl)oxy]pyridin-2-yl}-5H,6H,7H-cyclopenta[d]pyrimidin-4-yl)(methyl)amino]-N-(2-methoxypyrimidin-5-yl)acetamide] | 7.7 |
| CN(CC(=O)NC(C)(C)C)c1nc(-c2cc3ccoc3cn2)nc2c1CCC2 [Compound 365, N-tert-butyl-2-[(2-{furo[2,3-c]pyridin-5-yl}-5H,6H,7H-cyclopenta[d]pyrimidin-4-yl)(methyl)amino]acetamide] | 7.4 |
| CN(CC(=O)Nc1ccc(F)cc1)c1nc(-c2cc3cn(C)nc3cn2)nc2c1CCC2 [Compound 314, N-(4-fluorophenyl)-2-[methyl(2-{2-methyl-2H-pyrazolo[3,4-c]pyridin-5-yl}-5H,6H,7H-cyclopenta[d]pyrimidin-4-yl)amino]acetamide] | 7.6 |
| CN(CC(=O)NC(C)(C)C)c1nc(-c2cn3ccccc3n2)nc2c1CCC2 [Compound 166, N-tert-butyl-2-[(2-{imidazo[1,2-a]pyridin-2-yl}-5H,6H,7H-cyclopenta[d]pyrimidin-4-yl)(methyl)amino]acetamide] | 6.7 |
| CN(CC(=O)N1CCCC1(C)C)c1nc(-c2cc(OCCO)ccn2)nc2c1CCC2 [Compound 368, 1-(2,2-dimethylpyrrolidin-1-yl)-2-({2-[4-(2-hydroxyethoxy)pyridin-2-yl]-5H,6H,7H-cyclopenta[d]pyrimidin-4-yl}(methyl)amino)ethan-1-one] | 7.8 |
| CC1(C)CC[C@@H](Nc2nc(-c3ccccn3)nc3c2CCC3)C(=O)N1 [Compound 55, (3R)-6,6-dimethyl-3-{[2-(pyridin-2-yl)-5H,6H,7H-cyclopenta[d]pyrimidin-4-yl]amino}piperidin-2-one] | 6.3 |
| COc1ccc(NC(=O)CN(C)c2nc(-c3cc(OCCF)ccn3)nc3c2CCC3)cn1 [Compound 242, 2-({2-[4-(2-fluoroethoxy)pyridin-2-yl]-5H,6H,7H-cyclopenta[d]pyrimidin-4-yl}(methyl)amino)-N-(6-methoxypyridin-3-yl)acetamide] | 7.7 |
| CN(C)CCOc1ccnc(-c2nc3c(c(N(C)CC(=O)N4CCCC4)n2)CCC3)c1 [Compound 417, 2-[(2-{4-[2-(dimethylamino)ethoxy]pyridin-2-yl}-5H,6H,7H-cyclopenta[d]pyrimidin-4-yl)(methyl)amino]-1-(pyrrolidin-1-yl)ethan-1-one] | 7.1 |
| COc1ccc(NC2CCCN(c3nc(-c4ccccn4)nc4c3CCC4)C2)cc1 (centres unmarked) [Compound 11, N-(4-methoxyphenyl)-1-[2-(pyridin-2-yl)-5H,6H,7H-cyclopenta[d]pyrimidin-4-yl]piperidin-3-amine] | 6.3 |
| Cc1ccnc(-c2nc3c(c(N(C)CC(=O)NC(C)(C)C)n2)CCC3)c1 [Compound 24, N-tert-butyl-2-{methyl[2-(4-methylpyridin-2-yl)-5H,6H,7H-cyclopenta[d]pyrimidin-4-yl]amino}acetamide] | 7.6 |
| CN(CC(=O)Nc1ccc(F)nc1)c1nc(-c2cc3ccccc3cn2)nc2c1CCC2 [Compound 221, N-(6-fluoropyridin-3-yl)-2-{[2-(isoquinolin-3-yl)-5H,6H,7H-cyclopenta[d]pyrimidin-4-yl](methyl)amino}acetamide] | 7 |
| CN(CC(=O)NC(C)(C)C)c1nc(-c2cc(OCC(C)(C)O)ccn2)nc2c1C(=O)CC2 [Compound 492, N-tert-butyl-2-({2-[4-(2-hydroxy-2-methylpropoxy)pyridin-2-yl]-5-oxo-5H,6H,7H-cyclopenta[d]pyrimidin-4-yl}(methyl)amino)acetamide] | 6.6 |
| CCN(CC(=O)NC(C)(C)C)c1nc(-c2cc(OCCO)ccn2)nc2c1CCC2 [Compound 360, N-tert-butyl-2-[ethyl({2-[4-(2-hydroxyethoxy)pyridin-2-yl]-5H,6H,7H-cyclopenta[d]pyrimidin-4-yl})amino]acetamide] | 7.8 |
| CN(CC(=O)NC(C)(C)C)c1nc(-c2cncn2CCO)nc2c1CCC2 [Compound 196, N-tert-butyl-2-({2-[1-(2-hydroxyethyl)-1H-imidazol-5-yl]-5H,6H,7H-cyclopenta[d]pyrimidin-4-yl}(methyl)amino)acetamide] | 5.6 |
| c1ccc(-c2nc3c(c(N4CC5CC(C4)c4ccccc45)n2)CCC3)nc1 [Compound 1, 10-[2-(pyridin-2-yl)-5H,6H,7H-cyclopenta[d]pyrimidin-4-yl]-10-azatricyclo[6.3.1.0^{2,7}]dodeca-2,4,6-triene] | 6.9 |
| C[C@@H](CO)Oc1ccnc(-c2nc3c(c(N(C)CC(=O)NC(C)(C)C)n2)CCC3)c1 [Compound 385, N-tert-butyl-2-{[2-(4-{[(2S)-1-hydroxypropan-2-yl]oxy}pyridin-2-yl)-5H,6H,7H-cyclopenta[d]pyrimidin-4-yl](methyl)amino}acetamide] | 8.2 |
| Clc1ccnc(-c2nc3c(c(N4CCCCCC4)n2)CCC3)c1 [Compound 96, 1-[2-(4-chloropyridin-2-yl)-5H,6H,7H-cyclopenta[d]pyrimidin-4-yl]azepane] | 6.6 |
| CC(C)NC(=O)CN(C)c1nc(-c2cc(OCC(C)(C)O)ccn2)nc2c1CCC2 [Compound 389, 2-({2-[4-(2-hydroxy-2-methylpropoxy)pyridin-2-yl]-5H,6H,7H-cyclopenta[d]pyrimidin-4-yl}(methyl)amino)-N-(propan-2-yl)acetamide] | 7.9 |
| CC(C)(O)COc1ccnc(-c2nc3c(c(NCC(=O)NC(C)(C)C)n2)CCC3)c1 [Compound 409, N-tert-butyl-2-({2-[4-(2-hydroxy-2-methylpropoxy)pyridin-2-yl]-5H,6H,7H-cyclopenta[d]pyrimidin-4-yl}amino)acetamide] | 7.6 |
| CN(CC(=O)N1CCCCC1)c1nc(-c2cc(O[C@H]3CCOC3)ccn2)nc2c1CCC2 [Compound 343, 2-[methyl(2-{4-[(3S)-oxolan-3-yloxy]pyridin-2-yl}-5H,6H,7H-cyclopenta[d]pyrimidin-4-yl)amino]-1-(piperidin-1-yl)ethan-1-one] | 7.7 |
| CN(CC(=O)N1CCCCC1)c1nc(-c2cc3ccccc3cn2)nc2c1CCC2 [Compound 255, 2-{[2-(isoquinolin-3-yl)-5H,6H,7H-cyclopenta[d]pyrimidin-4-yl](methyl)amino}-1-(piperidin-1-yl)ethan-1-one] | 6.9 |
| C[C@H](O)COc1ccnc(-c2nc3c(c(N(C)CC(=O)NC(C)(C)C)n2)CCC3)c1 [Compound 370, N-tert-butyl-2-[(2-{4-[(2S)-2-hydroxypropoxy]pyridin-2-yl}-5H,6H,7H-cyclopenta[d]pyrimidin-4-yl)(methyl)amino]acetamide] | 8.2 |
| CC(C)NC(=O)CN(C)c1nc(-c2cc(OCCN3CCOCC3)ccn2)nc2c1CCC2 [Compound 430, 2-[methyl(2-{4-[2-(morpholin-4-yl)ethoxy]pyridin-2-yl}-5H,6H,7H-cyclopenta[d]pyrimidin-4-yl)amino]-N-(propan-2-yl)acetamide] | 8 |
| CN1CCCN(c2nc(-c3ccccn3)nc3c2CCC3)CC1 [Compound 85, 1-methyl-4-[2-(pyridin-2-yl)-5H,6H,7H-cyclopenta[d]pyrimidin-4-yl]-1,4-diazepane] | 5.5 |
| Cc1ccc(NC(=O)CN(C)c2nc(-c3cc(OCC(C)(C)O)ccn3)nc3c2CCC3)cn1 [Compound 302, 2-({2-[4-(2-hydroxy-2-methylpropoxy)pyridin-2-yl]-5H,6H,7H-cyclopenta[d]pyrimidin-4-yl}(methyl)amino)-N-(6-methylpyridin-3-yl)acetamide] | 7.9 |
| CCC(C)(O)COc1ccnc(-c2nc3c(c(N(C)CC(=O)NC(C)(C)C)n2)CCC3)c1 (stereo in doubt) [Compound 446, N-tert-butyl-2-[(2-{4-[(2R)-2-hydroxy-2-methylbutoxy]pyridin-2-yl}-5H,6H,7H-cyclopenta[d]pyrimidin-4-yl)(methyl)amino]acetamide] | 8.2 |
| CN(CC(=O)NC(C)(C)C)c1nc(-c2nccn2C)nc2c1CCC2 [Compound 162, N-tert-butyl-2-{methyl[2-(1-methyl-1H-imidazol-2-yl)-5H,6H,7H-cyclopenta[d]pyrimidin-4-yl]amino}acetamide] | 5.7 |
